US7671085B2, “Non-steroidal farnesoid X receptor modulators and methods for the use thereof” (The Salk Institute for Biological Studies, priority 2002, dated 2010)

Tests used:
SXR = target: T1, SXR (Homo sapiens, UniProt O75469); assay: nuclear receptor panel: SXR activation; assay type: cell-based
T1 sequence (O75469 1-434): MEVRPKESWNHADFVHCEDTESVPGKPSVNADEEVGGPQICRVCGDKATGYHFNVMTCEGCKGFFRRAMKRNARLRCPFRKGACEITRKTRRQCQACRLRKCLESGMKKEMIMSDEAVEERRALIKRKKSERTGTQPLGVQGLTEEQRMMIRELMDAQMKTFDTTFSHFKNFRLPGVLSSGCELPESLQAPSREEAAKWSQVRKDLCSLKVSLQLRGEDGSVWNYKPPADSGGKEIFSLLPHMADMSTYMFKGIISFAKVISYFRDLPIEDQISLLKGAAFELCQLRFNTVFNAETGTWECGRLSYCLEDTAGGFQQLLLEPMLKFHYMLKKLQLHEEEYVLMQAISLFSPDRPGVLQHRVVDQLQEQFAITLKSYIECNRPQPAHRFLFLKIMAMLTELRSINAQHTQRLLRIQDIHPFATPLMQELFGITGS

FXR = target: T2, FXR (Homo sapiens, UniProt Q96RI1); assay: cell-based FXR transcription assay, FXR responsive promoter linked to luciferase reporter; conditions: cell-based FXR reporter assay; footnote a not given
T2 construct: using a full length FXR on a natural response element; expressed in transfected cells
T2 sequence (Q96RI1 1-486): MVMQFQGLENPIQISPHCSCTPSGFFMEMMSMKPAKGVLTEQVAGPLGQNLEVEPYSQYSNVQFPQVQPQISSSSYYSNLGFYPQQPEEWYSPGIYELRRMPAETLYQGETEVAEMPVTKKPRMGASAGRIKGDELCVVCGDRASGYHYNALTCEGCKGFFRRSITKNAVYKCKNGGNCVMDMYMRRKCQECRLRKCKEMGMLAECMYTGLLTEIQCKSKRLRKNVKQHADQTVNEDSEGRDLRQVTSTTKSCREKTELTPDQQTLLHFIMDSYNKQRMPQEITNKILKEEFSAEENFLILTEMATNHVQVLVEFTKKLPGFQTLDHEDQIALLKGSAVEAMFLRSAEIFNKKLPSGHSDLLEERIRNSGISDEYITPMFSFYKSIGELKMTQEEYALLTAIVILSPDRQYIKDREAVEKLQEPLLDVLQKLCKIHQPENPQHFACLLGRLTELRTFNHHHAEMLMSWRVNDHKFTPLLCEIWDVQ
Summary of the method: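 Cells co-transfected with full-length FXR and a luciferase reporter driven by a natural response element on a minimal promoter. Compound exposure ≈10 μM for 18 h before washing and luciferase read-out, in 384-well format, with CDCA as reference activator. EC50 derived from transcriptional activity.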

[1] = test system: FXR target genes SHP, MRP-2, BSEP and PLTP; assay: Northern blot of FXR target genes in HEPG2-FXR cells; assay type: cell-based; conditions: SHP, MRP-2, BSEP, PLTP
Method: (§1) HepG2 or HT29-derived cell lines were typically cultured in medium containing superstripped FBS for 24 hr before the addition of a ligand or DMSO (vehicle) for an additional 24-48 hr. Total RNA was isolated using TRIzol reagent and was resolved (10 μg/lane) on a 1% agarose, 2.2 M formaldehyde gel, transferred to a nylon membrane (Hybond N^+; Amersham Biosciences, Inc.), and cross-linked to the membrane with UV light.
(§2) cDNA probes were radiolabeled with [α-^32P]dCTP using the highprime labeling kit (Amersham Biosciences, Inc.). Membranes were hybridized using the QuikHyb hybridization solution (Stratagene, La Jolla, Calif.) according to the manufacturer's protocol. Blots were normalized for variations of RNA loading by hybridization to a control probe, either, 18 S ribosomal cDNA, or the ribosomal protein 36B4. The RNA levels were quantitated using a PhosphorImager (ImageQuant software; Molecular Dynamics, Inc., Sunnyvale, Calif.) in addition to being exposed to X-ray film.
Total RNA was isolated and the expression of the FXR target genes SHP, MRP-2, BSEP and PLTP was measured by Northern blot analysis. […]

[2] = test system: IBABP mRNA in HT29-FXRFL cells; assay: Northern blot of IBABP mRNA in HT29 stable cell lines; assay type: cell-based, Human
Method: as §1, §2
Human colon cells HT29 (FXR null until differentiated) were infected with retroviral vectors that expressed either FXR constructs and the puromycin-resistant gene or the puromycin-resistant gene alone. Puromycin resistant cells were isolated and pooled cell populations were propagated that harbored either the vector alone (HT29-BABE), overexpressed FXR full length (HT29-FXRFL), a non-functional FXR truncated at the AF2 region (HT29-FXR-AF2), or a constitutively active FXR that has the VP16 activation domain fused N-terminal of the protein (HT29-VP16-FXR). Confirmation of the successful establishment of the different stable cell lines was established via northern blot analysis of FXR message levels in the cells.
These observations verify the usefulness of this colon cell model system for studying the induction of FXR target genes.
The ability of the novel compounds identified herein to induce IBABP gene expression in this cell system was also examined. Total RNA from HT29 stable cells treated overnight with fexaramine, fexarine and fexarene was probed for IBABP gene expression.

mouse FXR and human RXR = target: T3, mouse FXR and human RXR (Mus musculus, UniProt Q60641); assay: CV-1 transient transfection reporter gene assay, TK minimal promoter with ECRE or ER-8 FXRE; assay type: cell-based; conditions: CV-1 cells
T3 construct: expressed in transfected cells; host or cells: CV-1 cells
T3 sequence (Q60641 1-488): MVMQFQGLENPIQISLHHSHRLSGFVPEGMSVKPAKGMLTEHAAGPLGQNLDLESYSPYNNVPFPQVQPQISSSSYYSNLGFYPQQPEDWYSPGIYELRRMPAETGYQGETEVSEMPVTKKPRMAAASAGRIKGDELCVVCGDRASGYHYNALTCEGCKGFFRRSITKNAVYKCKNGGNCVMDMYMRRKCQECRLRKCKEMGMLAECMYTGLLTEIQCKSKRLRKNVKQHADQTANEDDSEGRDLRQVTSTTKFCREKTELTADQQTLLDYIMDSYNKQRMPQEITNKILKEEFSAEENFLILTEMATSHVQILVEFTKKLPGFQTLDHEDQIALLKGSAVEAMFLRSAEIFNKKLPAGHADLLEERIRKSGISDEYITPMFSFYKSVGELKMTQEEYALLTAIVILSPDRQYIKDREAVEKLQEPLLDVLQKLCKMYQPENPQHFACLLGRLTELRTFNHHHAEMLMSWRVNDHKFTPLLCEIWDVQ
T3 sequence (P19793 1-462 partner): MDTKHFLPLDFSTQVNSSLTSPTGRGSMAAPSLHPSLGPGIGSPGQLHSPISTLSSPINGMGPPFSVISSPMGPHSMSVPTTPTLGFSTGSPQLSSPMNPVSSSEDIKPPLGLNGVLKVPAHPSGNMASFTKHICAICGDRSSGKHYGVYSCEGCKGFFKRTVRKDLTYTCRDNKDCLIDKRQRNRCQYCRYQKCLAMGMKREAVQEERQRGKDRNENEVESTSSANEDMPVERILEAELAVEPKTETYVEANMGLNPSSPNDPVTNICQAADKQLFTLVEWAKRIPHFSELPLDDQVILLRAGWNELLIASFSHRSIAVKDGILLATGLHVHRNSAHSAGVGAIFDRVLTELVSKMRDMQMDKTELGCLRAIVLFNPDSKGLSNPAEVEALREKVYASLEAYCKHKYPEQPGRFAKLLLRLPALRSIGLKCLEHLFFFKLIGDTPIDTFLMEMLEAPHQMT
Method: The ability of these compounds to activate the receptor in a number of different cell-based reporter gene assays was then determined. […] CV-1 cells were transiently transfected with an expression plasmid for mouse FXR and human RXR with a thymidine kinase (TK) minimal promoter reporter vector containing either no copies or six copies of the ecdysone response element (ECRE), a well-characterized FXR response element (FXRE). In addition, two copies of the recently identified FXRE everted repeat separated by 8 nucleotides (ER-8) was also studied (see, for example, Laffitte et al. (2000). Identification of the DNA binding specificity and potential target genes for the farnesoid X-activated receptor. J Biol Chem. 275(14), 10638-47; Kast et al. (2002). Regulation of multidrug resistance-associated protein 2 (ABCC2) by the nuclear receptors pregnane X receptor, farnesoid X-activated receptor, and constitutive androstane receptor. J Biol Chem. 277(4), 2908-15).

[3] = test system: FXR (IBABP, PLTP and MRP-2 promoters); assay: transient transfection cell-based assay with natural promoters of FXR targets (IBABP, PLTP, MRP-2)
Excerpt: For this study, the following gene promoters were used: intestinal bile acid binding protein (IBABP; see, for example, Grober et al. (1999). Identification of a bile acid-responsive element in the human ileal bile acid-binding protein gene. Involvement of the farnesoid X receptor/9-cis-retinoic acid receptor heterodimer. J Biol Chem. 274(42), 29749-54), phospholipid transfer protein (PLTP) (Urizar et al (2000). The farnesoid X-activated receptor mediates bile acid activation of phospholipid transfer protein gene expression. J Biol Chem. 275(50), 39313-7) and multidrug resistance related protein 2 (MRP-2) (Kast et al. (2002), supra), which are all well characterized targets of FXR. The natural promoters of both the IBABP and PLTP genes contain one copy of an inverted repeat with a one base spacing (IR-1) while MRP-2 contains an ER-8 element. […] The most robust activation (28-fold) was seen on the IBABP promoter. Less robust (2-3 fold) but specific activation was observed on the PLTP and MRP-2 promoters.

Structure (SMILES)	SXR activation, in words (SXR)	RE^a (FXR)	induction of FXR target genes, in words [1]	induction of IBABP mRNA, in words ([2]; HT29-BABE or HT29-FXR-AF2 cell lines)	induction of IBABP mRNA, in words ([2]; HT29-FXRFL cells)	concentration for maximal induction of IBABP mRNA ([2]; HT29-FXRFL cells, overnight treatment)	induction of IBABP mRNA, in words ([2]; HT29-VP16-FXR cells (constitutive expression))	concentration at which maximal activity is achieved (mouse FXR and human RXR; ECRE and ER-8 reporters)	activity on the minimal TK promoter (mouse FXR and human RXR; no FXRE copies)	activation of ECRE FXRE reporter (mouse FXR and human RXR; six copies of ECRE, TK minimal promoter)	activation of ER-8 FXRE reporter (mouse FXR and human RXR; two copies of ER-8, TK minimal promoter)	concentration of maximum efficacy [3]
COC(=O)/C=C/c1cccc(N(Cc2ccc3c(c2OC)OC(C)(C)C2C3C2(Cl)Cl)C(=O)C2CCCCC2)c1 (stereo not drawn) [Compound 149]	potently activated SXR	0.50	–	–	–	–	–	–	–	–	–	–
CC(C)c1onc(-c2c(Cl)cccc2Cl)c1COc1ccc(/C=C/c2cccc(C(=O)O)c2)c(Cl)c1 [GW4064, reference compound]	–	–	slightly better induction of the FXR target genes PLTP and SHP	No induction of IBABP mRNA levels	robust concentration dependent induction of IBABP mRNA	1 µM	super-induced	1 µM	less than 2 fold	100 fold	4 fold	1 µM
